Measurements taken from publication PMC10017027, “Design and Synthesis of Novel HIV-1 NNRTIs with Bicyclic Cores and with Improved Physicochemical Properties” (Journal of Medicinal Chemistry, 2023).
Converted amounts (≈) assume the structure as drawn. Like-named read-outs stand apart in the source and are kept apart here.

Key:
[1] = tested on: HIV-1 HXB2 Y181C variant; assay: MT-4 antiviral cytopathic effect assay, HXB2-Y181C; type: cell-based; details: for EC50: Human immunodeficiency virus 1, HXB2, read-out: EC50 Y181C
Protocol: (§1) The prepared compounds were tested for their anti-HIV-1 activity (Table 1). A viral cytopathic effect assay in MT-4 cells with HIV-1 IIIB virus was used to determine compound potency (EC50, 50% cell viability) in protecting virus induced cell killing. Compound cytotoxicity was assessed in MT-4 cells in the absence of virus (CC50, 50% cytotoxicity). […] ETV contains bromo and amino substitutions on the DAPY core. […] Likely, with the smaller cyano arm I in 1, 3, and 5, the cores could be further elaborated to optimize the compound position in the pocket and to improve potency.
(§2) Compounds were tested in a high-throughput 384-well assay format for their ability to inhibit the virus replication-induced cytopathic effect in MT-4 cell cultures acutely infected with HIV-1 (IIIB strain), HXB2, HXB2-K103N, and HXB2-Y181C. Compounds were serially diluted (1:3) in DMSO on 384-well polypropylene plates and further diluted 200-fold into complete RPMI media (10% FBS, 1% P/S) using Biotek Micro Flow and an Agilent ECHO acoustic dispenser. Each plate contained up to eight test compounds, with negative (no drug control) and 5 μM AZT positive controls. MT-4 cells were further diluted in complete RPMI media and added to each plate using a Micro-Flo dispenser. After five days of incubation in a humidified and temperature-controlled incubator (37 °C), Cell Titer Glo (Promega) was added to the assay plates to quantify the amount of […]. EC50 and CC50 values were defined as the compound concentration that causes a 50% decrease in luminescence signal and were calculated using a sigmoidal dose-response model to generate curve fits.

[2] = Solubility assessment, shake-flask method; type: physicochemical; details: for solubility: shake-flask; for HCl sol / PBS sol: supplement CSV
Protocol: Compound solubility was measured at Analiza (Cleveland, OH) by the standard shake-flask method at pH 1.2 and 7.4 and quantitated by HPLC-UV.

[3] = tested on: HIV-1 HXB2 K103N variant; assay: MT-4 antiviral cytopathic effect assay, HXB2-K103N; type: cell-based; details: for EC50: Human immunodeficiency virus 1, HXB2, read-out: EC50 K103N
Protocol: as §1, §2

[4] = tested on: HIV-1 (IIIB strain); assay: MT-4 antiviral cytopathic effect assay, HIV-1 IIIB; type: cell-based; details: for EC50: Human immunodeficiency virus 1, IIIB, MT4, protects 50% of MT-4 cells against HIV-1-induced cell killing, HIV-1 IIIB, WT, read-out: EC50 MT4
Protocol: (§3) The prepared compounds were tested for their anti-HIV-1 activity (Table 1). A viral cytopathic effect assay in MT-4 cells with HIV-1 IIIB virus was used to determine compound potency (EC50, 50% cell viability) in protecting virus induced cell killing. Compound cytotoxicity was assessed in MT-4 cells in the absence of virus (CC50, 50% cytotoxicity).
as §2

[5] = in vitro; type: cell-based; details: human
Protocol: as §1, §2

[6] = tested on: HIV-1 HXB2; assay: MT-4 antiviral cytopathic effect assay, HXB2 wild-type virus; type: cell-based; details: Human immunodeficiency virus 1, MT4; HIV-1 HXB2 wild-type, MT-4 cells; read-out: EC50 HXB2
Protocol: as §3, §2

[7] = MDCK permeability assay (A to B); type: in vitro ADME, Canine; details: dog, MDCK
Description: Compounds were further tested in a Madin–Darby Canine Kidney (MDCK) assay to evaluate their potential for oral absorption. […] Additionally, there was no trend for better permeability when comparing arm I versus arm II when matched with the same core. The size of the B ring had the greatest influence on Papp with the trend being five-membered > six-membered > seven-membered rings (Table 1).
cMdr1-KO cells were maintained in Dulbecco’s modified Eagle’s medium (DMEM) with sodium pyruvate and GlutaMax, supplemented with 1% Pen/Strep and 10% fetal bovine serum in an incubator set at 37 °C, 90% humidity, and 5% CO2. MDCKII- cMdr1-KO cells were grown to confluence over 3 days on 96-well PET plates with 1 μm pore size, polyester membrane (Corning 3392). Experiments were run using HBSS donor buffer from Invitrogen containing an additional 10 mM HEPES, 15 mM glucose, and 0.1% BSA adjusted to pH 7.4. The receiver well had HBSS buffer supplemented with 1% BSA, 10 mM HEPES, 15 mM glucose, and the pH was adjusted to 7.4. TEER values were read to test membrane integrity at the beginning of the assay. The experiment was started by the addition of dosing solutions containing test compounds. Samples were taken from the donor compartment at 0/120 min and from the receiver compartment at 120 min. Each compound was tested in two separate replicate wells. All samples were immediately collected in a 72:8:20 MeCN/MeOH:H2O mix to precipitate protein and stabilize the test compounds. Cells were dosed on the apical side to determine forward (A to B) permeability. To test for non-specific binding and compound instability, the total amount of drug was quantified at the end of the experiment and compared to the material present in the original dosing solution as a percentage of recovery. Samples were analyzed by RF-QToF.

[8] = Predicted clearance in human liver microsomes; type: in vitro ADME; details: pH 7.4, 1 μM compound, read-out: HLM CLint, pred (converted)
Protocol: Next, microsome stability was profiled in purified human liver microsomes (HLM).
Metabolic stability of compounds was assessed using HLM (Corning cat. 457117).[52] In this assay, 10 nL compounds at a concentration of 1 mM in 100% DMSO are dispensed into 384-well polypropylene plates using the Echo 550 acoustic liquid dispenser (Labcyte). Each plate contains 384 wells with a single test compound in each well.
A solution of HLM at 2 mg/mL in 100 mM K2HPO4/KH2PO4 pH 7.4 with 0.0225 mg/mL Alamethicin from Trichoderma viride (Sigma-Aldrich cat. A4665-10MG) was incubated on ice for 15 min. 5 μL of this solution was added to individual wells following 15 min incubation at room temperature; and supplemented with 5 μL NADPH Regenerating Solution of cofactors (Corning Gentest UGT Reaction Mix solutions A and B, cat. 451200 and 451220) containing 100 mM K2HPO4/KH2PO4 pH 7.4, 2.6 mM NADP^+, 6.6 mM glucose-6-phosphate, 6.6 mM MgCl2, 0.8 U/mL glucose-6-phosphate dehydrogenase, 0.1 mM sodium citrate, and 6.8 mM uridine diphosphate-glucuronic acid. The final concentration of analyte compounds at the beginning of the reactions was 1 μM. The reactions were incubated at 37 °C, and time points of 0, 5, 15, 30, 40, 50, 60, and 70 min were collected for further analysis. Background data were collected using reactions without analyte compounds.
Upon collection of the reaction time points, samples were quenched at the set time points with 30 μL of a solution of 72% acetonitrile, 8% methanol, 0.1% formic acid, 19.9% water, and labetalol as an internal standard (IS) at a concentration of 650 nM. Reaction plates were span in a centrifuge at a speed of 4000 rcf for 30 min and 4 °C, following a dilution of the 10 μL quenched reaction into 40 μL de-ionized water, yielding assay plates.
Samples were analyzed by a solid-phase extraction coupled with a quadrupole time-of-flight mass spectrometer, using an Agilent QToF 6530 RapidFire 360 system with C4 type A solid state cartridges. Analysis was performed in either positive or negative ionization modes. Mobile phases contained 0.1% formic acid in water for loading analytes onto solid state extraction cartridges, and 0.1% formic acid in acetonitrile for elution into the mass spectrometer in positive ionization mode, or 0.1% acetic acid in water for loading and 0.1% acetic acid in acetonitrile for extraction in negative ionization mode. Peak-area ratios of integrated counts for individual compounds to IS were plotted as a semi-logarithmic chart of log versus time. Initial, linear portion of decay was fitted to a linear regression equation to derive the half-time of a compound decay.
Pharmacological parameters for an analyte compound metabolism were calculated using the equations described in Table S2.
Table S2. Pharmacological parameters for an analyte compound metabolism were
calculated using the following equations:
Intrinsic Clearance (in Cl = ln 2
int, in vitro T1/2 ∗ Conc
Intrinsic Clearance Cl = Clint, in vitro ∗ Liver Mass ∗ Yield
Predicted Hepatic Cl = Clint ∗ QH
QH (Hepatic Blood Flow) = 1.3 L/hr/kg

[9] = fold change: ratio of potency against HXB2 Y181C and parental HXB2
[10] = supplement CSV, fold change vs HXB2
[11] = HCl, pH 1.2, read-out: solubility HCl
[12] = phosphate-buffered saline, pH 7.4, read-out: solubility PBS
[13] = fold change: ratio of potency against HXB2 K103N and parental HXB2
[14] = apparent permeability coefficient, A to B, pH 7.4
[15] = preliminary biological data, in words

## Cc1cc(C#N)cc(C)c1-n1c(=O)[nH]c2cnc(Nc3ccc(C#N)cc3)nc21 [Compound 1, 4-{2-[(4-Cyanophenyl)amino]-8-oxo-8,9-dihydro-7H-purin-9-yl}-3,5-dimethylbenzonitrile]
[1]
  EC50: 241 nM
[1]; [9]
  Y181C (FC): 3.3
[1]; [10]
  Y181C (FC): 3.3
[2]; [11]
  solubility: 73.2 µM (≈ 27.9 µg/mL)
[2]; [12]
  solubility: 6.6 µM (≈ 2.52 µg/mL)
[2]
  HCl sol: 73.2 µM
  PBS sol: 6.6 µM
[3]
  EC50: 230 nM
[3]; [13]
  K103N (FC): 3.1
[3]; [10]
  K103N (FC): 3.1
[4]
  EC50: 62.3 nM
[5]
  CC50 at 120 h: 43700 nM
[6]
  EC50: 73.7 nM
[7]; supplement CSV
  Papp A→B at 120 min: 4.9 ×10⁻⁶ cm/s
[7]; [14]
  Papp A→B at 120 min: 4.9 ×10⁻⁶ cm/s
[8]
  CLint scaled at 1.167 h, 1 µM: 8.83 mL/min/kg

## Cc1cc(C#N)cc(C)c1N1CCC(=O)Nc2cnc(Nc3ccc(C#N)cc3)nc21 [Compound 5, 4-{2-[(4-Cyanophenyl)amino]-6-oxo-5H,6H,7H,8H,9H-pyrimido[4,5-b][1,4]diazepin-9-yl}-3,5-dimethylbenzonitrile]
[1]
  EC50: 198 nM
[1]; [9]
  Y181C (FC): 6.7
[1]; [10]
  Y181C (FC): 6.7
[2]; [11]
  solubility: 87.3 µM (≈ 35.7 µg/mL)
[2]; [12]
  solubility: 1.4 µM (≈ 0.573 µg/mL)
[2]
  HCl sol: 87.3 µM
  PBS sol: 1.4 µM
[3]
  EC50: 70.7 nM
[3]; [13]
  K103N (FC): 2.4
[3]; [10]
  K103N (FC): 2.4
[4]
  EC50: 43.4 nM
[5]
  CC50 at 5 days: > 50000 nM
[6]
  EC50: 29.4 nM
[7]; supplement CSV
  Papp A→B at 120 min: 3.5 ×10⁻⁶ cm/s
[7]; [14]
  Papp A→B at 120 min: 3.5 ×10⁻⁶ cm/s
[8]
  CLint scaled at 1.167 h, 1 µM: 15.5 mL/min/kg

## Cc1cc(CO)cc(C)c1-n1c(=O)[nH]c2cnc(Nc3ccc(C#N)cc3)nc21 [Compound 32, 4-({9-[4-(Hydroxymethyl)-2,6-dimethylphenyl]-8-oxo-8,9-dihydro-7H-purin-2-yl}amino)benzonitrile]
[4]
  EC50: 174 nM
[5]
  CC50 at 120 h: 39700 nM

## Cc1cc(CO)cc(C)c1N1CC(=O)Nc2cnc(Nc3ccc(C#N)cc3)nc21 [Compound 28, 4-({8-[4-(hydroxymethyl)-2,6-dimethylphenyl]-6-oxo-5,6,7,8-tetrahydropteridin-2-yl}amino)benzonitrile]
[4]
  EC50: 78.9 nM
[5]
  CC50 at 120 h: 41600 nM

## Cc1cc(CO)cc(C)c1N1CCC(=O)Nc2cnc(Nc3ccc(C#N)cc3)nc21 [Compound 39, 4-({9-[4-(hydroxymethyl)-2,6-dimethylphenyl]-6-oxo-5H,6H,7H,8H,9H-pyrimido[4,5-b][1,4]diazepin-2-yl}amino)benzonitrile]
[4]
  EC50: 198 nM
[5]
  CC50 at 120 h: 15900 nM

## Cc1cc(Br)cc(C)c1N1CC(=O)Nc2cnc(Nc3ccc(C#N)cc3)nc21 [Compound 14, 4-{[8-(4-Bromo-2,6-dimethylphenyl)-6-oxo-5,6,7,8-tetrahydropteridin-2-yl]amino}benzonitrile]
[1]; [15]
  potency against Y181C mutated strain: high potency
[2]; preliminary data, in words
  aqueous solubility: significantly improved
[3]; [15]
  potency against K103N mutated strain: high potency
[4]; [15]
  activity against the WT virus: low nanomolar activity

## Cc1cc(C=O)cc(C)c1N1CCC(=O)Nc2cnc(Nc3ccc(C#N)cc3)nc21 [Compound 42, 4-{[9-(4-Formyl-2,6-dimethylphenyl)-6-oxo-5H,6H,7H,8H,9H-pyrimido[4,5-b][1,4]diazepin-2-yl]amino}benzonitrile]
[4]
  EC50: 94.3 nM
[5]
  CC50 at 120 h: 5000 nM

## Cc1cc(C=O)cc(C)c1N1CC(=O)Nc2cnc(Nc3ccc(C#N)cc3)nc21 [Compound 41, 4-{[8-(4-Formyl-2,6-dimethylphenyl)-6-oxo-5,6,7,8-tetrahydropteridin-2-yl]amino}benzonitrile]
[4]
  EC50: 76.7 nM
[5]
  CC50 at 120 h: 14200 nM

## Cc1cc(C=O)cc(C)c1-n1c(=O)[nH]c2cnc(Nc3ccc(C#N)cc3)nc21 [Compound 40, 4-{[9-(4-Formyl-2,6-dimethylphenyl)-8-oxo-8,9-dihydro-7H-purin-2-yl]amino}benzonitrile]
[4]
  EC50: 209 nM
[5]
  CC50 at 5 days: > 50000 nM
